{
  "source": "patent US20230404985A1",
  "about": "“METHODS OF TREATING TUMORS AND CANCERS HAVING DYSREGULATED WNT SIGNALING PATHWAYS” (ICAHN SCHOOL OF MEDICINE AT MOUNT SINAI, priority 2020, published 2023)",
  "tested_on": "cytoplasmic kinases including BRAF and p38α/β",
  "assay": "NanoBRET live cell target engagement, cytoplasmic kinases",
  "type": "cell-based",
  "settings": "relative to sorafenib and regorafenib",
  "procedure": "For NanoBRET™ dose response experiments, SNU398 cells were transfected with a MAPK14-NanoLuc© Fusion Vector according to the Promega NanoBRET™ TE Intracellular Kinase Assay protocol. Following overnight transfection, cells were trypsinized and redistributed on a white 96-well plate (20,000 cells per well). Cells were incubated with 1 μM of K-4 Tracer and sorafenib or WNTinib at doses ranging from 0.02→20 μM for two hours. After drug incubation, plates were equilibrated to room temperature for 15 minutes, and NanoBRET™ Nano-Glo© Substrate and Extracellular NanoLuc© Inhibitor were added to wells. Bioluminescent donor (NanoLuc© luciferase) and fluorescent acceptor (Tracer) emission were measured on a GloMax plate reader at 450 and 600 nm, respectively. BRET ratio is reported as acceptor signal divided by the donor signal for each well. Conditions were evaluated in technical triplicates for each experiment, and experiments were repeated in biological duplicates. […] The plate was continuously read on a GloMax plate reader for 2 hours to record BRET signal from the association of the K-4 Tracer with the MAPK14-NanoLuc© Fusion Vector. Conditions were evaluated in technical triplicates, and experiments were repeated in biological duplicates.\nIn order to characterize the direct targets of WNTinib, kinome selectivity profiles were first assessed by in vitro kinase assays. […]",
  "data": [
    {"smiles": "CNC(=O)c1cc(Oc2ccc(NC(=O)Nc3ccc(C(F)(F)C(F)(F)F)cc3)c(F)c2)ccn1", "note": "[WNTinib, 4-(3-fluoro-4-(3-(4-(perfluoroethyl)phenyl)ureido)phenoxy)-N-methylpicolinamide]", "values": [
      {"measurement": "target engagement potency on cytoplasmic kinases BRAF and p38α/β", "result": "markedly less potent than sorafenib and regorafenib"}
    ]}
  ]
}
